Reference: patent US12440500B2, “Phytoecdysones and the derivatives thereof for use in the treatment of neuromuscular diseases” (BIOPHYTIS, priority 2019, dated 2025)

Columns and labels:
Format in all cases: in vivo, mouse
SMA mice [1] = assay: Grip test (muscular fatigability)
Description: Phenotypic analyses of type 2 severe SMA mice treated or not starting from P0 with BIO101 were conducted. Longitudinally every two days, a test was conducted of the motor capacities of the mice from P5 to P9. The inventors evaluated the spontaneous displacement capacities by the open-field test, as well as the muscular fatigability by grip test, such as described hereinabove (Biondi et al., 2008; Branchu et al., 2013; Chali et al., 2016).
Indeed, the number of squares that they are able to cross is 10 at P5, 6 at P7 and 8 at P9 versus 17 at P5, 12 at P7 and 24 at P9 in the group of healthy control mice (with p<0.01, p<0.0001 and p<0.001 respectively). […] At P9, this difference is not significant but the treatment with BIO101 tends to have a beneficial effect with mice that are able to cross 11 squares in the group of SMA mice BIO101 in relation to 8 squares in the SMA Vehicle group, p=ns). In order to evaluate muscular fatigability, the gripping force of the hind feet of the mice was tested from P5 to P9 (grip test). The mice are suspended via their hind feet from a thin metal rod suspended in the air, horizontally. The time spent hanging on is recorded. Each mouse was subjected to five successive attempts with a rest period of one minute between two tests. Only the best test was retained for the evaluation of the muscular functions.

[2] = test system: SMA mice (FVB/NRj-SmnΔ7/Δ7 huSMN2+/+ 2 copies); assay: Phenotypic analysis: weight and survival of severe SMA mice under daily gavage
Excerpt: A severe SMA mouse model was used on an FVB/NRj gene pool, characterized by the invalidation of the exon 7 of the murine gene Smn and expressing 2 copies of the human transgene SMN2 (Smn^Δ7/Δ7; huSMN2^+/+) (Hsieh et al., 2000). The mice resulting from these crossings having the “FVB/NRj-Smn^Δ7/Δ7 huSMN2^+/+ 2 copies” genotype are described as “SMA”. These mice are characterized by progressive growth failure which is observed starting from 4 days post-natal and have a degeneration of about 50% of the motor neurons of the ventral horn of the spinal cord at the end of life, progressive muscular atrophy and an average lifespan of about 12 days (Hsieh et al., 2000). The mice having the “FVB/NRj-Smn^+/Δ7 huSMN2^++ 2 copies” genotype have no particular phenotype and are used as so-called “control” mice. The mice were treated via daily gavage of a dose of 50 mg/kg, either with the molecule BIO101 complexed to a vehicle (cyclodextrin in the present case), or with the vehicle alone (VH). The weight and the survival were analyzed on a daily basis until P11. In the rest of the description, n corresponds to the size of the sample and p corresponds to the “p value” used to quantify the statistical significance of a result.
The same type II murine model was used to characterize the phenotypic effects of the molecule BIO103 in a severe SMA model. The mice were treated via daily gavage of a dose of 50 mg/kg, either with the molecule BIO103 complexed with the vehicle (cyclodextrin in the present case), or with the vehicle alone (VH). The weight and the survival were analyzed on a daily basis until P11.

[3] = test system: slow, intermediate and fast motor neurons of SMA mice; assay: Motor neuron sub-populations (ChAT/ERRβ/MMP9 co-labeling, lumbar spinal cord)
Description: In a manner complementary to the quantitative analysis of the number of motor neurons and of the size of their soma as well as the qualitative study concerning their location (medial or lateral in the ventral spinal cord), we studied the impact of the treatment by BIO101 on the protection of the sub-populations of motor neurons (slow motor neurons, intermediate motor neurons and fast motor neurons). This qualitative analysis of the sub-populations of motor neurons was carried out on thick cross-sections of the lumbar region of the spinal cord (L1-L5) of control or SMA mice treated or not with BIO101 by immunofluorescent labeling with Choline Acetyltransferase such as was described hereinabove (Biondi et al., 2008; Branchu et al., 2013) as well as an analysis of the type of motor neurons by immunofluorescence co-labeling with Estrogen-related receptor-β (ERRβ), a specific marker of the slow motor neurons, or with Matrix metallopeptidase 9 (MMP9), a specific marker of the fast motor neurons.
The anesthetized mice underwent an intracardiac infusion with PBS. The spinal cords of the mice were taken, fixed then rinsed. The lumbar region of the spinal cords (L1-L5) was coated in a 4% solution of agarose. 50 μm cross-sections were made using a vibratome over the entire length of the sample. One section every 5 sections of spinal cord was then used for the immunohistochemical analyses. […]

SMA mice [4] = assay: Open-field test (spontaneous displacement capacities)
Description: Phenotypic analyses of type 2 severe SMA mice treated or not starting from P0 with BIO101 were conducted. Longitudinally every two days, a test was conducted of the motor capacities of the mice from P5 to P9. The inventors evaluated the spontaneous displacement capacities by the open-field test, as well as the muscular fatigability by grip test, such as described hereinabove (Biondi et al., 2008; Branchu et al., 2013; Chali et al., 2016). The device used for the open-field test is different according to the age of the mice. For animals from P0 to P6, it is formed of a 15×15×5 cm plastic box with a grid pattern of the field divided into 25 3 cm×3 cm squares. For animals from P7 to P21, it is formed of a 28×28×5 cm plastic box with a grid pattern of the field divided into 16 7 cm×7 cm squares. The mice were tested individually and the evaluation device was washed after each session. Each mouse initially placed at the center of the field was able to move about freely for 5 minutes. The behavioral measurements are recorded by the experimenter during these 5 minutes and the total number of squares crossed was recorded.

**Q.** For `CC(C)(O)CC[C@@H](O)[C@](C)(O)[C@H]1CC[C@@]2(O)C3=CC(=O)[C@@H]4C[C@@H](O)[C@@H](O)C[C@]4(C)[C@H]3CC[C@]12C` [BIO101, 20-hydroxyecdysone], which “hanging time (grip test)” value (SMA mice [1]; P5, SMA mice (vehicle 0.2), p<0.05) is on record?
**A.** Its value is 2.3 s.

**Q.** What about the “hanging time (grip test)” value (SMA mice [1]; P7, SMA mice (vehicle 6.2), p=ns) of the same molecule?
**A.** Its value is 12.2 s.

**Q.** And the “hanging time (grip test)” value (SMA mice [1]; P9, SMA mice (vehicle 5.6), p<0.01)?
**A.** Its value is 20.9 s.

**Q.** And the pre-P11 mortality ([2]; 50 mg/kg daily gavage P0 to P11, versus vehicle, p<0.05)?
**A.** The pre-P11 mortality was “significantly reduces”.

**Q.** What about the “loss of weight of the animals” value ([2]; 50 mg/kg daily gavage from birth to P11, versus vehicle) of the same molecule?
**A.** Its value is “significantly limit”.

**Q.** What about the “number of fast motor neurons (ChAT+MMP9+)” value ([3]; SMA mice treated P0 to P11 (SMA vehicle 11), p<0.05) of the same molecule?
**A.** Its value is 14.

**Q.** And the “number of slow motor neurons (ChAT+ERRβ+)” value ([3]; between healthy vehicle, SMA vehicle and SMA treated groups)?
**A.** The value was “does not vary significantly”.

**Q.** And the “number of squares crossed (open-field test)” value (from here on “number of squares crossed”) (SMA mice [4]; P5, SMA mice (vehicle 10))?
**A.** The value was 11 squares.

**Q.** And the “number of squares crossed” value (SMA mice [4]; P7, SMA mice (vehicle 6), p<0.05)?
**A.** Its value is 10 squares.

**Q.** What about the “number of squares crossed” value (SMA mice [4]; P9, SMA mice (vehicle 8), p=ns) of the same molecule?
**A.** The value was 11 squares.
